Source: US20070218189A1, “Reduction inhibitory agent for active oxygen eliminating-activity” (KABUSHIKI KAISHA HAYASHIBARA SEIBUTSU KAGAKU KENYUJO, priority 2001, published 2007)

Experiments:
[1] = tested on: superoxide, formed in a xanthine-xanthine oxidase system; assay: Active oxygen eliminating activity of powdery carrot compositions with saccharides before and after storage, nitro blue tetrazolium (NBT) test (Experiment 3); assay type: biochemical; details: for Activity (unit/g) After storage / Percentage of residual activity (%) / Activity (unit/g) Before storage: powdery carrot composition; for Activity (unit/g) After storage / Percentage of residual activity (%): saccharide added at 10% d.s.b., stored at 40° C. for seven days; for Activity (unit/g) Before storage: saccharide added to disrupted carrots at 10% d.s.b.; for residual percentage / reduction inhibitory activity for active oxygen eliminating activity among the saccharides tested: powdery carrot compositions, 40° C. seven days, in words
Procedure: Fresh raw carrots were disrupted by a mixer, and saccharides were respectively added to the mixture and dissolved therein to give a concentration of 10%, d.s.b. The solutions were dried under a reduced pressure at 40° C. for two days, dried in vacuo at the same temperature for 24 hours, and pulverized by a mixer into powdery carrot compositions. […] An about 100 g each of the compositions was placed and sealed in a 500-ml polystyrene container, and stored at 40° C. for seven days. The active oxygen eliminating activities of the compositions before and after storage were compared with each other. The active oxygen eliminating activity was assayed by the nitro blue tetrazolium (NBT) test by Toshio IMANARI et al. in Igakuno Ayumi, Vol. 101, pp. 496-497 (1977), and the level of superoxide, formed in a xanthine-xanthine oxidase system, was assayed by quantifying calorimetrically the content of formazan formed by reducing NBT. As a control, refined water was used as a test solution. One unit activity of active oxygen eliminating activity was defined as that inhibited 50% formazan formation as compared with the control. […] Thus cyclotetrasaccharide is preferable as an effective ingredient for a reduction inhibitory agent for active oxygen eliminating activity.

[2] = tested on: active oxygen; assay: Active oxygen eliminating activity of superoxide dismutase and antioxidants in cyclotetrasaccharide solution or water before and after storage (Experiment 7); assay type: biochemical; details: for Activity (unit/mg antioxidant) After one storage / Residual activity (%): dark; for Activity (unit/mg antioxidant) Before storage: superoxide dismutase 5 μg/ml, α-glucosyl hesperidin and α-glucosyl rutin 10 mg/ml, catechin 50 μg/ml
Procedure: In one milliliter of 30% (w/v) cyclotetrasaccharide solution, which is prepared by using cyclotetrasaccharide obtained in Experiment 2, was dissolved five micrograms (μ g) of superoxide dismutase from a horseradish commercialized by Sigma Chemical Co., St. Louis, USA, 10 mg of α-glucosyl hesperidin commercialized by Hayashibara Biochemical Laboratories, Inc., Okayama Japan, 10 mg of α-glucosyl rutin commercialized by Hayashibara Biochemical Laboratories, Inc., Okayama, Japan, 250 μg of gallic acid commercialized by Wako Pure Chemical Industries, Ltd., Tokyo, Japan, or 50 μg of catechin to obtain a liquid composition. Each of the compositions was placed in a glass test tube, sealed with a rubber cap, and stored under a dark condition. As a control, water was used in place of the cyclotetrasaccharide solution.

[3] = cyclotetrasaccharide 0% (water), 80° C. 5 days, α-glucosyl hesperidin, α-glucosyl rutin 10 mg/ml, gallic acid 250 μg/ml
[4] = cyclotetrasaccharide 30%, 80° C. 5 days, α-glucosyl hesperidin, α-glucosyl rutin 10 mg/ml, gallic acid 250 μg/ml
[5] = cyclotetrasaccharide concentration 0% (water), gallic acid 250 μg/ml
[6] = cyclotetrasaccharide concentration 30%, gallic acid 250 μg/ml
[7] = cyclotetrasaccharide 0% (water), 60° C. 17 hours, 5 μg/ml
[8] = cyclotetrasaccharide 30%, 60° C. 17 hours, 5 μg/ml
[9] = cyclotetrasaccharide 0% (water), 25° C. 20 hours, 50 μg/ml
[10] = cyclotetrasaccharide 30%, 25° C. 20 hours, 50 μg/ml

| Activity (unit/g) After storage [1] | Percentage of residual activity (%) [1] | Activity (unit/g) Before storage [1] | Compound | Activity (unit/mg antioxidant) Before storage [2, 5] | Activity (unit/mg antioxidant) Before storage [2, 6] | further results |
| --- | --- | --- | --- | --- | --- | --- |
| 180 unit/g | 27% | 660 unit/g | OC[C@H]1O[C@@](CO)(O[C@H]2O[C@H](CO)[C@@H](O)[C@H](O)[C@H]2O)[C@@H](O)[C@@H]1O [Sucrose, sucrose] | – | – | – |
| – | – | – | α-glucosyl rutin | 25 unit/mg antioxidant | 26 unit/mg antioxidant | Activity (unit/mg antioxidant) After one storage [2, 3]: 18 unit/mg antioxidant; Residual activity (%) [2, 3]: 72%; Activity (unit/mg antioxidant) After one storage [2, 4]: 22 unit/mg antioxidant; Residual activity (%) [2, 4]: 85% |
| – | – | – | OCC1OC2OCC3O[C@H](O[C@H]4C(O)C(CO)OC(OCC5O[C@H](O[C@@H](C1O)C2O)C(O)C(O)[C@@H]5O)C4O)C(O)C(O)[C@@H]3O (stereo partly drawn) [crystalline cyclotetrasaccharide hydrate] | – | – | change of the active oxygen eliminating activity on storage of a powder mixture ([2]; powdery crystalline cyclotetrasaccharide hydrate mixed dry with either of the powdery antioxidants, storage test as in Table 5): almost no change of the active oxygen eliminating activity |
| 380 unit/g | 66% | 580 unit/g | OC[C@H]1O[C@H](O[C@H]2O[C@H](CO)[C@@H](O)[C@H](O)[C@H]2O)[C@H](O)[C@@H](O)[C@@H]1O [Trehalose, trehalose] | – | – | residual percentage / reduction inhibitory activity for active oxygen eliminating activity among the saccharides tested [1]: highest residual percentage |
| – | – | – | O=C(O)c1cc(O)c(O)c(O)c1 [Gallic acid, gallic acid] | 590 unit/mg antioxidant | 600 unit/mg antioxidant | Activity (unit/mg antioxidant) After one storage [2, 3]: 390 unit/mg antioxidant; Residual activity (%) [2, 3]: 66%; Activity (unit/mg antioxidant) After one storage [2, 4]: 450 unit/mg antioxidant; Residual activity (%) [2, 4]: 75% |
| – | – | – | α-glucosyl hesperidin | 3.8 unit/mg antioxidant | 4.0 unit/mg antioxidant | Activity (unit/mg antioxidant) After one storage [2, 3]: 1.0 unit/mg antioxidant; Residual activity (%) [2, 3]: 26%; Activity (unit/mg antioxidant) After one storage [2, 4]: 2.1 unit/mg antioxidant; Residual activity (%) [2, 4]: 53% |
| – | – | – | Superoxide dismutase | 10,000 unit/mg antioxidant | 12,000 unit/mg antioxidant | Activity (unit/mg antioxidant) After one storage [2, 7]: 4,600 unit/mg antioxidant; Residual activity (%) [2, 7]: 46%; Activity (unit/mg antioxidant) After one storage [2, 8]: 7,300 unit/mg antioxidant; Residual activity (%) [2, 8]: 61% |
| 59 unit/g | 11% | 520 unit/g | OC[C@@H](O)[C@@H](O)[C@H](O)[C@H](O)CO [Mannitol, mannitol] | – | – | – |
| 26 unit/g | 5% | 560 unit/g | OC[C@@H](O)[C@@H](O)[C@H](O)[C@@H](O)CO [Sorbitol, sorbitol] | – | – | – |
| – | – | – | catechin | 470 unit/mg antioxidant | 450 unit/mg antioxidant | Activity (unit/mg antioxidant) After one storage [2, 9]: 2.2 unit/mg antioxidant; Residual activity (%) [2, 9]: 0%; Activity (unit/mg antioxidant) After one storage [2, 10]: 240 unit/mg antioxidant; Residual activity (%) [2, 10]: 53% |
| 360 unit/g | 51% | 710 unit/g | pullulan | – | – | residual percentage / reduction inhibitory activity for active oxygen eliminating activity among the saccharides tested [1]: relatively-high reduction inhibitory activity |
